Experimental findings from patent US9994848B2, “Pharmaceutical composition for preventing and teating endocrine disrupting chemicals-induced diseases and treating method using the same” (priority 2016, dated 2018) are described below.

The subject of series [1] is 3T3-L1 adipocytes. Description: Oil Red O staining of 3T3-L1 adipocytes (adipocyte differentiation, total lipid content). Type of series: cell-based, mouse. Conditions: for oil red O staining (adipocyte differentiation): PCBs 20 μM during DMI treatment, 3T3-L1 adipocytes. On the procedure:
(§1) 3T3-L1 mouse embryo fibroblasts, purchased from American Type Culture Collection (Manassas, Va., USA), were maintained in standard Dulbecco's modified Eagle's medium (DMEM; Gibco-BRL, Gaithersburg, Md., USA) supplemented with 10% fetal calf serum (FCS; Gibco-BRL, Gaithersburg, Md., USA) and 1% penicillin/streptomycin at 37° C. in a humidified 5% CO2 atmosphere. After confluence, 3T3-L1 cells were induced to differentiate using DMI induction medium (DMEM containing 10% FBS, 0.5 mM 3-isobutyl-1-methylxanthine, 0.5 μM dexamethasone, and 1 μg/ml insulin) for 2 days, followed by DMII (DMEM containing 10% FBS and 1 μg/ml insulin) for 2 days. The medium was subsequently replaced with fresh culture medium (DMEM with 10% FBS) every 2 days for 4 days. To define the effects of PCBs on adipocyte differentiation, we incubated preadipocytes with PCBs (PCB-77, PCB-118, PCB-138 or PCB-153) at equivalent concentrations (20 μM) during DMI treatment.
(§2) For the siRNA-mediated down-regulation of Fsp27, Fsp27-specific siRNA and negative control siRNA were purchased from Bioneer (Daejeon, Korea) and used at a concentration of 20 nM. 3T3-L1 mouse embryo fibroblasts were transfected with either the siRNA molecule specific for Fsp27 or a negative control siRNA using Lipofectamine® RNAiMAX per the manufacturer's instructions.
As previously described (Kim et al. 2015), cells were washed twice in phosphate buffered saline (PBS) and fixed for 1 h with 10% (w/v) formaldehyde in PBS. After two washes in 60% isopropyl alcohol, the cells were stained for 30 min in freshly diluted Oil Red O solution. Then, the stain was removed, and the cells were washed 4 times in water. After adding 100% 2-propanol at 500 nm, the absorbance of the eluted Oil Red O was measured in a spectrophotometer.

Series [2] deals with C57BL/6 mice. The experiment in a line: PCB exposure of C57BL/6 mice: adipose mass, adipocyte size, body and liver weight. The format is in vivo, mouse. Conditions: 37.5 mg/kg ip, three injections, 6-week study. On the procedure: (§3) Adult male C57BL/6 mice (8-week-old, 22-25 g) were purchased from SamTako Bio-Korea (Osan, Korea). The animals were maintained in a temperature-controlled room (22° C.) on a 12:12-h light-dark cycle. All procedures were approved by the Committee on Animal Investigations at Dong-A University. 12-week-old mice were administered vehicle (corn oil), PCB-118 or PCB-138 (37.5 mg/kg) by intraperitoneal (ip) injection for a total of three injections (2, 3 and 5 weeks) during the 6-week study duration. Mice were randomly divided into 3 groups of 10 animals each.
Epididymal white adipose tissues (eWAT) were fixed in 10% neutral buffered formalin and embedded in paraffin. Four-micrometer sections were prepared and stained with hematoxylin and eosin. The morphology of the […] was photographed using an Aperio ScanScope (Aperio Technologies, Vista, Calif., USA).

Series [3] relates to 3T3-L1 adipocytes. Description: Lipid droplet (LD) morphology and size in 3T3-L1 adipocytes (phase contrast, confocal microscopy). The format is cell-based, mouse. Conditions: for large LD formation: 3T3-L1 adipocytes treated with PCBs. On the procedure: as §1, §2
For a further series, the system named is aP2, PPAR and C/EBP. Description: mRNA and protein levels of adipocyte differentiation markers in vitro. Type of series: cell-based, mouse. On the procedure: as §1, with “To define the effects of PCBs on adipocyte differentiation, we incubated preadipocytes with PCBs (PCB-77, PCB-118, PCB-138 or PCB-153) at equivalent concentrations (20 μM) during DMI treatment.” left out
(§4) Cells and tissues were washed with ice-cold PBS, resuspended in 100 μL ice-cold RIPA buffer and incubated at 4° C. for 30 min. […] Immunostaining with antibodies was performed using the Super Signal West Pico (Thermo Scientific, Hudson, N.H., USA) enhanced chemiluminescence substrate and detected with LAS-3000 Plus (Fuji Photo Film, Tokyo, Japan). Quantification and normalization to actin or GAPDH control bands were performed using ImageJ 1.48q (NIH imaging software, Bethesda, Md., USA).

The subject of series [4] is Fsp27 and perilipin. Description: Western blot of LD-associated proteins in 3T3-L1 adipocytes. Type of series: cell-based, mouse. Conditions: for protein expression levels of Fsp27 and perilipin: in vitro. On the procedure: as §1
(§5) Cells and tissues were washed with ice-cold PBS, resuspended in 100 μL ice-cold RIPA buffer and incubated at 4° C. for 30 min. Lysates were centrifuged at 13,000 rpm for 30 min at 4° C. Equal amounts of proteins were subjected to 7.5-15% sodium dodecyl sulfate polyacrylamide gel electrophoresis. The proteins were transferred to a nitrocellulose membrane and reacted with each antibody. Immunostaining with antibodies was performed using the Super Signal West Pico (Thermo Scientific, Hudson, N.H., USA) enhanced chemiluminescence substrate and detected with LAS-3000 Plus (Fuji Photo Film, Tokyo, Japan). Quantification and normalization to actin or GAPDH control bands were performed using ImageJ 1.48q (NIH imaging software, Bethesda, Md., USA).

Series [5] relates to p-Akt (Ser473) and p-PI3K p85 (Tyr458). Description: Western blot of insulin-induced p-Akt and p-PI3K p85 in 3T3-L1 adipocytes. The format is cell-based, mouse. Conditions: for insulin-induced upregulation of p-Akt (Ser473) and p-PI3K p85 (Tyr458): 3T3-L1 adipocytes. On the procedure:
as §1, §5
A general note: A western blot detects proteins with antibodies after separation by electrophoresis.

In series [6] the test system is Fsp27 and perilipin. The experiment in a line: Western blot of LD-associated proteins in PCB-administered mice. Also noted: species or system mouse. Conditions: in vivo. As for the experimental part:
as §3, §5

The subject of series [7] is C57BL/6 mice. The experiment in a line: Blood glucose, plasma insulin, GTT and ITT in PCB-administered mice. The format is in vivo, mouse. Conditions: for blood glucose level / plasma insulin level: 37.5 mg/kg ip; for amount of hyperglycemia in GTT: glucose 1 mg/g ip after 16 h fast; for efficiency of insulin in ITT: insulin 0.75 U/kg ip after 16 h fast. As for the experimental part:
as §3
As previously described, intraperitoneal glucose tolerance tests (GTT) and insulin tolerance tests (ITT) were performed after the mice were fasted for 16 h. Plasma glucose concentrations were measured in tail blood using a GlucoDr Blood Glucose Test Strip (Hasuco, Seoul, South Korea) prior to and 30, 60, 90 and 120 minutes after intraperitoneally injecting a bolus of glucose (1 mg/g) for the GTT, and at the same time-points after intraperitoneally injecting 0.75 U/kg body weight insulin for the ITT.

A further series has as its system adipocytes. The experiment in a line: Accumulation of PCBs in adipocytes. Type of series: cell-based.
The subject of another series is IRS1. Description: IRS1 protein and mRNA level in 3T3-L1 adipocytes. Type of series: cell-based, mouse. Conditions: correlated with reversal of Fsp27 upregulation, Western blot. On the procedure: as §1, with “To define the effects of PCBs on adipocyte differentiation, we incubated preadipocytes with PCBs (PCB-77, PCB-118, PCB-138 or PCB-153) at equivalent concentrations (20 μM) during DMI treatment.” left out
as §4

On to `Clc1ccc(-c2ccc(Cl)c(Cl)c2)cc1Cl` [PCB-77, 3,3′,4,4′-tetrachlorobiphenyl], for which the “effect on the adipocyte differentiation” value in the series with 3T3-L1 adipocytes [1] (compared to PCB-118 and PCB-138, 20 μM) is “meager effect”.

As to `Clc1cc(Cl)c(-c2ccc(Cl)c(Cl)c2Cl)cc1Cl` [PCB-138, 2,2′,3,4,4′,5′-Hexachlorobiphenyl], in the series with C57BL/6 mice [2], the “adipocyte size (eWAT)” value is reported as “increased”, the adipose mass result is given as “increased”, the body weight entry is “without affecting” and the liver weight result is listed as “without affecting”. The “large LD formation” value in the series with 3T3-L1 adipocytes [3] was “promote large LD formation”. The “mRNA and protein levels of aP2, PPAR and C/EBP (markers of adipocyte differentiation)” value in the series with aP2, PPAR and C/EBP is reported as “increased”. The “oil red O staining (adipocyte differentiation)” value in the series with 3T3-L1 adipocytes [1] was “significantly increased”. In the series on Fsp27 and perilipin [4] (3T3-L1 adipocytes), the “protein expression levels of Fsp27 and perilipin” value (“protein expression levels” for short) is “increased”. The “insulin-induced upregulation of p-Akt (Ser473) and p-PI3K p85 (Tyr458)” value in series [5] is “impaired”. In addition, the “protein expression levels” value in the series on Fsp27 and perilipin [6] is “increased”. Also, in the series on C57BL/6 mice [7], the blood glucose level result is reported as “increased”, the plasma insulin level entry is reported as “increased”, the “amount of hyperglycemia in GTT” value is listed as “increased” and the “efficiency of insulin in ITT” value was “reduced”.

`Clc1ccc(-c2cc(Cl)c(Cl)cc2Cl)cc1Cl` [PCB-118, 2,3′,4,4′,5-pentachlorobiphenyl]: in the series with C57BL/6 mice [2], the “adipocyte size (eWAT)” value was “increased”, the adipose mass entry was “increased”, the body weight entry is on record as “without affecting” and the liver weight result is reported as “without affecting”. For the same compound, the “large LD formation” value in the series on 3T3-L1 adipocytes [3] is recorded as “promote large LD formation”. For the same compound, in the series on aP2, PPAR and C/EBP, the “mRNA and protein levels of aP2, PPAR and C/EBP (markers of adipocyte differentiation)” value is “increased”. Further, the “oil red O staining (adipocyte differentiation)” value in the series on 3T3-L1 adipocytes [1] was “significantly increased”. The “protein expression levels” value in the series on Fsp27 and perilipin [4] (3T3-L1 adipocytes) was “increased”. Moreover, the “insulin-induced upregulation of p-Akt (Ser473) and p-PI3K p85 (Tyr458)” value in series [5] was “impaired”. In the series with Fsp27 and perilipin [6], the “protein expression levels” value was “increased”. Further, in the series with C57BL/6 mice [7], the blood glucose level result is “increased”, the plasma insulin level result is listed as “increased”, the “amount of hyperglycemia in GTT” value was “increased” and the “efficiency of insulin in ITT” value is recorded as “reduced”.

Consider `CN(C)C(=N)N=C(N)N` [metformin, reference compound], for which the “accumulation of PCB-118 and PCB-138 in adipocytes” value in the series on adipocytes is “reverted”. Besides, the “PCB-induced LD enlargement” value in the series on 3T3-L1 adipocytes [3] (PCB-treated 3T3-L1 adipocytes, phase contrast microscopy) is given as “reversed”. The “IRS1 downregulation in adipocytes exposed to PCBs” value with IRS1 is on record as “reversal”. Besides, the “expression level of Fsp27” value with Fsp27 and perilipin [4] (3T3-L1 adipocytes, Western blot) is “reduced”. Besides, the “PCB-induced upregulation of Fsp27 expression” value with Fsp27 and perilipin [4] (PCB-treated 3T3-L1 adipocytes, Western blot) is given as “reversed”. In addition, in series [5] (PCB-treated 3T3-L1 adipocytes), the “impairment by PCBs of the insulin-induced upregulation of p-Akt (Ser473) and p-PI3K p85 (Tyr458)” value is “reversed”.
